Reference: PMC11292009, “Mapping protein binding sites by photoreactive fragment pharmacophores” (Communications Chemistry, 2024)
Entries after “also recorded” stand apart in the source; their conditions may differ.

Test system: T1, Kras G12D protein / SOS1 exchange domain
T1 construct: Cytoskeleton, Inc. (SOS1 exchange domain only) GE02
Assay: Kras-SOS exchange assay (MANT-GDP)
Type: biochemical
Conditions: for normalized signal, Kras-SOS exchange (Figure 4c PhP072 irradiation): Php072 500 uM
Description: MANT-GDP loading assay: Kras^G12D protein was first buffer exchanged into low magnesium buffer (20 mM HEPES-NaOH (pH 7.5), 50 mM NaCl, 0.5 mM MgCl2) using a NAP5 column (catalog no.: 17-0583-1, Cytiva). The proteins were then incubated with 20-fold molar excess of N-methylanthraniloyl (MANT)-GDP (catalog no.: 69244, Sigma-Aldrich) in loading buffer (50 mM NaCl, 20 mM HEPES-NaOH [pH 7.5], 0.5 mM MgCl2, 10 mM EDTA, and 1 mM Dithiothreitol (DTT)) in a total volume of 200 μL at 20 °C for 90 min. The reaction was stopped by adding MgCl2 to a final concentration of 10 mM, then incubated at 20 °C for 30 min. The unbound MANT-GDP was removed using the NAP-5 column equilibrated with nucleotide exchange buffer (40 mM HEPES-NaOH (pH 7.5), 50 mM NaCl, 10 mM MgCl2, 2 mM DTT).
MANT-GDP exchange assay: First the MANT-GDP bound Kras G12D protein (in a final 1 μM molar concentration) was preincubated with the inhibitor molecules for 60 min. After the preincubation the samples were exposed to UV light for 10 min with a wavelength of 366 nm. The UV-treated MANT-GDP Kras-inhibitor mix was loaded into a black 384 well microplate. The nucleotide exchange reaction was initiated by adding 100 fold molar excess of GppNHp (catalog no.: G0635, Sigma-Aldrich), a non-hydrolyzable GTP analog and the SOS1 exchange domain (catalog no.: GE02, Cytoskeleton, Inc.) protein in 0.5 μM final concentration. The change in fluorescence intensity was measured every 30 s in room temperature for 60 min on an EnSpire plate reader (PerkinElmer, Inc.). The measured fluorescence values were fitted to a single exponential function by using GraphPad Prism 8 software.

Cc1ncc(CO)c(CNC(=O)CCC2(C)N=N2)c1O [PhP072, Cc1ncc(CO)c(c1O)CNC(=O)CCC2(C)N=N2]
normalized signal, Kras-SOS exchange (Figure 4c PhP072 irradiation) (time 30 sec): 0.9874
normalized signal, Kras-SOS exchange (Figure 4c PhP072 irradiation) (time 60 sec): 0.984
normalized signal, Kras-SOS exchange (Figure 4c PhP072 irradiation) (time 90 sec): 0.9869
normalized signal, Kras-SOS exchange (Figure 4c PhP072 irradiation) (time 120 sec): 0.9755
normalized signal, Kras-SOS exchange (Figure 4c PhP072 irradiation) (time 210 sec): 0.9893
normalized signal, Kras-SOS exchange (Figure 4c PhP072 irradiation) (time 240 sec): 1.005
normalized signal, Kras-SOS exchange (Figure 4c PhP072 irradiation) (time 270 sec): 0.9931
normalized signal, Kras-SOS exchange (Figure 4c PhP072 irradiation) (time 300 sec): 0.9815
normalized signal, Kras-SOS exchange (Figure 4c PhP072 irradiation) (time 330 sec): 0.9652
normalized signal, Kras-SOS exchange (Figure 4c PhP072 irradiation) (time 360 sec): 0.9672
normalized signal, Kras-SOS exchange (Figure 4c PhP072 irradiation) (time 390 sec): 0.9659
normalized signal, Kras-SOS exchange (Figure 4c PhP072 irradiation) (time 420 sec): 0.9589
normalized signal, Kras-SOS exchange (Figure 4c PhP072 irradiation) (time 450 sec): 0.9736
normalized signal, Kras-SOS exchange (Figure 4c PhP072 irradiation) (time 480 sec): 0.978
normalized signal, Kras-SOS exchange (Figure 4c PhP072 irradiation) (time 510 sec): 0.9558
normalized signal, Kras-SOS exchange (Figure 4c PhP072 irradiation) (time 540 sec): 0.9578
normalized signal, Kras-SOS exchange (Figure 4c PhP072 irradiation) (time 570 sec): 0.9776
normalized signal, Kras-SOS exchange (Figure 4c PhP072 irradiation) (time 600 sec): 0.972
normalized signal, Kras-SOS exchange (Figure 4c PhP072 irradiation) (time 630 sec): 0.974
normalized signal, Kras-SOS exchange (Figure 4c PhP072 irradiation) (time 660 sec): 0.9647
normalized signal, Kras-SOS exchange (Figure 4c PhP072 irradiation) (time 690 sec): 0.9564
normalized signal, Kras-SOS exchange (Figure 4c PhP072 irradiation) (time 720 sec): 0.9623
normalized signal, Kras-SOS exchange (Figure 4c PhP072 irradiation) (time 750 sec): 0.9619
normalized signal, Kras-SOS exchange (Figure 4c PhP072 irradiation) (time 780 sec): 0.9405
normalized signal, Kras-SOS exchange (Figure 4c PhP072 irradiation) (time 810 sec): 0.9601
normalized signal, Kras-SOS exchange (Figure 4c PhP072 irradiation) (time 840 sec): 0.9458
normalized signal, Kras-SOS exchange (Figure 4c PhP072 irradiation) (time 870 sec): 0.9534
normalized signal, Kras-SOS exchange (Figure 4c PhP072 irradiation) (time 900 sec): 0.9403
normalized signal, Kras-SOS exchange (Figure 4c PhP072 irradiation) (time 930 sec): 0.9459
normalized signal, Kras-SOS exchange (Figure 4c PhP072 irradiation) (time 960 sec): 0.9381
normalized signal, Kras-SOS exchange (Figure 4c PhP072 irradiation) (time 990 sec): 0.9447
normalized signal, Kras-SOS exchange (Figure 4c PhP072 irradiation) (time 1020 sec): 0.9591
normalized signal, Kras-SOS exchange (Figure 4c PhP072 irradiation) (time 1050 sec): 0.9368
normalized signal, Kras-SOS exchange (Figure 4c PhP072 irradiation) (time 1080 sec): 0.9576
normalized signal, Kras-SOS exchange (Figure 4c PhP072 irradiation) (time 1110 sec): 0.9476
normalized signal, Kras-SOS exchange (Figure 4c PhP072 irradiation) (time 1140 sec): 0.9304
normalized signal, Kras-SOS exchange (Figure 4c PhP072 irradiation) (time 1170 sec): 0.9558
normalized signal, Kras-SOS exchange (Figure 4c PhP072 irradiation) (time 1200 sec): 0.9429
normalized signal, Kras-SOS exchange (Figure 4c PhP072 irradiation) (time 1230 sec): 0.9405
normalized signal, Kras-SOS exchange (Figure 4c PhP072 irradiation) (time 1260 sec): 0.9391
normalized signal, Kras-SOS exchange (Figure 4c PhP072 irradiation) (time 1290 sec): 0.9393
normalized signal, Kras-SOS exchange (Figure 4c PhP072 irradiation) (time 1320 sec): 0.944
normalized signal, Kras-SOS exchange (Figure 4c PhP072 irradiation) (time 1350 sec): 0.9654
normalized signal, Kras-SOS exchange (Figure 4c PhP072 irradiation) (time 1380 sec): 0.9701
normalized signal, Kras-SOS exchange (Figure 4c PhP072 irradiation) (time 1410 sec): 0.9426
normalized signal, Kras-SOS exchange (Figure 4c PhP072 irradiation) (time 1440 sec): 0.9472
normalized signal, Kras-SOS exchange (Figure 4c PhP072 irradiation) (time 1470 sec): 0.9361
normalized signal, Kras-SOS exchange (Figure 4c PhP072 irradiation) (time 1500 sec): 0.939
normalized signal, Kras-SOS exchange (Figure 4c PhP072 irradiation) (time 1530 sec): 0.9519
normalized signal, Kras-SOS exchange (Figure 4c PhP072 irradiation) (time 1560 sec): 0.9436
normalized signal, Kras-SOS exchange (Figure 4c PhP072 irradiation) (time 1590 sec): 0.9444
normalized signal, Kras-SOS exchange (Figure 4c PhP072 irradiation) (time 1620 sec): 0.9461
normalized signal, Kras-SOS exchange (Figure 4c PhP072 irradiation) (time 1650 sec): 0.9444
normalized signal, Kras-SOS exchange (Figure 4c PhP072 irradiation) (time 1680 sec): 0.9402
normalized signal, Kras-SOS exchange (Figure 4c PhP072 irradiation) (time 1710 sec): 0.948
normalized signal, Kras-SOS exchange (Figure 4c PhP072 irradiation) (time 1740 sec): 0.9364
normalized signal, Kras-SOS exchange (Figure 4c PhP072 irradiation) (time 1770 sec): 0.939
normalized signal, Kras-SOS exchange (Figure 4c PhP072 irradiation) (time 1800 sec): 0.9328
normalized signal, Kras-SOS exchange (Figure 4c PhP072 irradiation) (time 1830 sec): 0.9307
normalized signal, Kras-SOS exchange (Figure 4c PhP072 irradiation) (time 1860 sec): 0.9265
normalized signal, Kras-SOS exchange (Figure 4c PhP072 irradiation) (time 1890 sec): 0.9579
normalized signal, Kras-SOS exchange (Figure 4c PhP072 irradiation) (time 1920 sec): 0.9312
normalized signal, Kras-SOS exchange (Figure 4c PhP072 irradiation) (time 1950 sec): 0.9362
normalized signal, Kras-SOS exchange (Figure 4c PhP072 irradiation) (time 1980 sec): 0.9324
normalized signal, Kras-SOS exchange (Figure 4c PhP072 irradiation) (time 2010 sec): 0.9475
normalized signal, Kras-SOS exchange (Figure 4c PhP072 irradiation) (time 2040 sec): 0.9452
normalized signal, Kras-SOS exchange (Figure 4c PhP072 irradiation) (time 2070 sec): 0.9435
normalized signal, Kras-SOS exchange (Figure 4c PhP072 irradiation) (time 2100 sec): 0.9537
normalized signal, Kras-SOS exchange (Figure 4c PhP072 irradiation) (time 2130 sec): 0.9458
normalized signal, Kras-SOS exchange (Figure 4c PhP072 irradiation) (time 2160 sec): 0.9297
normalized signal, Kras-SOS exchange (Figure 4c PhP072 irradiation) (time 2190 sec): 0.9168
normalized signal, Kras-SOS exchange (Figure 4c PhP072 irradiation) (time 2220 sec): 0.941
normalized signal, Kras-SOS exchange (Figure 4c PhP072 irradiation) (time 2250 sec): 0.934
normalized signal, Kras-SOS exchange (Figure 4c PhP072 irradiation) (time 2280 sec): 0.9076
normalized signal, Kras-SOS exchange (Figure 4c PhP072 irradiation) (time 2310 sec): 0.9404
normalized signal, Kras-SOS exchange (Figure 4c PhP072 irradiation) (time 2340 sec): 0.9263
normalized signal, Kras-SOS exchange (Figure 4c PhP072 irradiation) (time 2370 sec): 0.9501
normalized signal, Kras-SOS exchange (Figure 4c PhP072 irradiation) (time 2400 sec): 0.9106
normalized signal, Kras-SOS exchange (Figure 4c PhP072 irradiation) (time 2430 sec): 0.9173
normalized signal, Kras-SOS exchange (Figure 4c PhP072 irradiation) (time 2460 sec): 0.928
normalized signal, Kras-SOS exchange (Figure 4c PhP072 irradiation) (time 2490 sec): 0.9153
normalized signal, Kras-SOS exchange (Figure 4c PhP072 irradiation) (time 2520 sec): 0.9464
normalized signal, Kras-SOS exchange (Figure 4c PhP072 irradiation) (time 2550 sec): 0.9246
normalized signal, Kras-SOS exchange (Figure 4c PhP072 irradiation) (time 2580 sec): 0.9142
normalized signal, Kras-SOS exchange (Figure 4c PhP072 irradiation) (time 2910 sec): 0.92
normalized signal, Kras-SOS exchange (Figure 4c PhP072 irradiation) (time 2940 sec): 0.9177
normalized signal, Kras-SOS exchange (Figure 4c PhP072 irradiation) (time 2970 sec): 0.9062
normalized signal, Kras-SOS exchange (Figure 4c PhP072 irradiation) (time 3000 sec): 0.928
normalized signal, Kras-SOS exchange (Figure 4c PhP072 irradiation) (time 3030 sec): 0.9131
normalized signal, Kras-SOS exchange (Figure 4c PhP072 irradiation) (time 3060 sec): 0.9065
normalized signal, Kras-SOS exchange (Figure 4c PhP072 irradiation) (time 3090 sec): 0.9086
normalized signal, Kras-SOS exchange (Figure 4c PhP072 irradiation) (time 3120 sec): 0.9109
normalized signal, Kras-SOS exchange (Figure 4c PhP072 irradiation) (time 3150 sec): 0.9207
normalized signal, Kras-SOS exchange (Figure 4c PhP072 irradiation) (time 3180 sec): 0.8921
normalized signal, Kras-SOS exchange (Figure 4c PhP072 irradiation) (time 3210 sec): 0.9129
normalized signal, Kras-SOS exchange (Figure 4c PhP072 irradiation) (time 3240 sec): 0.8834
normalized signal, Kras-SOS exchange (Figure 4c PhP072 irradiation) (time 3270 sec): 0.9149
normalized signal, Kras-SOS exchange (Figure 4c PhP072 irradiation) (time 3300 sec): 0.9074
normalized signal, Kras-SOS exchange (Figure 4c PhP072 irradiation) (time 3330 sec): 0.9207
Effect on SOS1-mediated nucleotide exchange of KRas (prior to irradiation): little effect
Effect on SOS1-mediated nucleotide exchange of KRas (upon irradiation (366 nm, 10 min)): fully restores KRas function to the control level; also recorded: restore KRas function
